Assay results published in patent EP0335292A2, “2,6-Methano-1,3-benzodiazocines, a process for their preparation and their use as medicaments” (HOECHST-ROUSSEL PHARMACEUTICALS INCORPORATED, priority 1988, dated 1989).
Counter-ions that a name gives are not always drawn.

Tested on: mice
Assay: modified phenyl-p-quinone writhing assay in mice (analgesia)
Type: in vivo
Settings: Mus musculus, sc; read-out: Analgesic Activity (Inhibition of Writhing ED₅₀mg/kg,s.c.)
Protocol: The 2,6-methano-1,3-benzodiazocines of this invention are useful as analgetics due to their ability to alleviate pain in mammals. The procedure employed to determine analgetic activity is a modification of the phenyl-p-quinone writhing assay in mice, a standard assay for analgesia [Proc. Soc. Exptl. Bio. Med., 95 729(1957)]. Pursuant to the modified procedure, phenyl-p-benzoquinone (Eastman, 12.5 mg) is dissolved in 5 ml of 95% ethanol and the solution is diluted to a total volume of 100 ml with distilled water. The solution is administered to the subject mice intraperitoneally at a dose of 10 ml per kg of body weight. A characteristic "writhe", an inward rotation of one or more feet with twisting and turning of the trunk, drawing in of the abdominal wall, lordosis and arching of the back, is produced.
A total of 28 male mice (Charles River, CD-1), weighing 18 to 30 grams, are employed for a time response. The subject animals receive food and water ad libitum. Test compounds are dissolved in distilled water, or suspended in distilled water containing one drop of a suitable surfactant, such as Tween-80.
Four groups of five animals (20 animals) are given the test compound subcutaneously or orally (p.o.) at 15, 30, 45, and 60 minutes prior to administration of the phenyl-p-quinone. A control group (2 animals per group) receive an equal volume of the vehicle. After the administration of the phenyl-p-quinone, the mice are placed separately in one liter beakers, and after five minutes, are observed for ten minutes. The number of writhes for each animal is recorded. The following formula is used to compute the percent inhibition: […]
The time period with the greatest percent of inhibition is considered the peak time. A dose range determination is generally reserved for those compounds which inhibit [formula] writhing by greater than 65-70% at the screening dose. A dose range determination is run in the same manner as the time response except 10 animals per group are tested at the peak time of test drug activity. Fifty animals, four test drug groups, and a vehicle control are employed. Animals are dosed and tested in a randomized manner.

`CN1CCC2CC1N(C)c1ccc(O)cc12.O=C(O)/C=C/C(=O)O` (centres unmarked) [1,2,3,4,5,6-Hexahydro-1,3-dimethyl-2,6-methano-1,3-benzodiazocin-8-ol fumarate] and `CC(=O)Oc1ccc2c(c1)C1CCN(C)C(C1)N2C` (centres unmarked) [1,2,3,4,5,6-Hexahydro-1,3-dimethyl-2,6-methano-1,3-benzodiazocin-8-ol acetate, fumarate] are within 1.5-fold of each other in ED50: 0.7 mg/kg for the first, 0.74 mg/kg for the second.

First: CN1CCC2CC1N(C)c1c(Br)cc(O)cc12 (centres unmarked) [10-Bromo-1,2,3,4,5,6-hexahydro-1,3-dimethyl-2,6-methano-1,3-benzodiazocin-8-ol, hemi-fumarate]
Second: COc1ccc2c(c1)C1CCN(C)C(C1)N2C (centres unmarked) [1,2,3,4,5,6-Hexahydro-8-methoxy-1,3-dimethyl-2,6-methano 1,3-benzodiazocine]
The ED50 of the first is 5.4-fold lower: 1.9 mg/kg for the first, 10.2 mg/kg for the second.

For `CC(C)=CCN1CCC2(C)c3cc(O)ccc3CC1C2C` (centres unmarked) [pentazocine, reference compound], the ED50 was 1.3 mg/kg.
